Laboratory results taken from patent publication US20240018145A1, “[…]-DEPENDENT EN[…] TREATING OR […]” (priority 2020, published 2024).

Test system: FLU A (PR/8/34)
Assay: Flu A Neuraminidase Antiviral Assay
Format: cell-based
Conditions: not given

SMILES	EC50
CN1C(=O)c2c(O)c(=O)ccn2N2C1CCC2(C)c1ccccc1 (single isomer, unassigned) [Compound 61A, 6-hydroxy-1,4-dimethyl-1-phenyl-2,3,3a,4-tetrahydro-1H-pyrido[2,1-f]pyrrolo[1,2-b][1,2,4]triazine-5,7-dione]	122 nM
CC1(c2ccccc2)CCCC2N(CC3COC3)C(=O)c3c(O)c(=O)ccn3N21 (single isomer, unassigned) [Compound 40B, 7-hydroxy-1-methyl-5-(oxetan-3-ylmethyl)-1-phenyl-1,2,3,4,4a,5-hexahydrodipyrido[1,2-b:2′,1′-f][1,2,4]triazine-6,8-dione]	> 8100 nM
CN1C(=O)c2c(O)c(=O)ccn2N2C(c3cccc(F)c3)C(CC(F)(F)F)CCC12 (single isomer, unassigned) [Compound 121A, 1-(3-fluorophenyl)-7-hydroxy-5-methyl-2-(2,2,2-trifluoroethyl)-1,2,3,4,4a,5-hexahydrodipyrido[1,2-b:2′,1′-f][1,2,4]triazine-6,8-dione]	431 nM
CN1C(=O)c2c(O)c(=O)ccn2N2C(c3ccccc3)C(CC(F)(F)F)CCC12 (single isomer, unassigned) [Compound 118B, 7-hydroxy-5-methyl-1-phenyl-2-(2,2,2-trifluoroethyl)-1,2,3,4,4a,5-hexahydrodipyrido[1,2-b:2′,1′-f][1,2,4]triazine-6,8-dione]	3.1 nM
CN1C(=O)c2c(O)c(=O)ccn2N2C(c3ccc(Cl)c(F)c3)CCCC12 (single isomer, unassigned) [Compound 3A, 1-(4-chloro-3-fluorophenyl)-7-hydroxy-5-methyl-1,2,3,4,4a,5-hexahydrodipyrido[1,2-b:2′,1′-f][1,2,4]triazine-6,8-dione]	1020 nM
CCN1C(=O)c2c(O)c(=O)ccn2N2C(c3ccccc3)C(c3ccc(F)c(F)c3)CCC12 (single isomer, unassigned) [Compound 94A, 2-(3,4-difluorophenyl)-5-ethyl-7-hydroxy-1-phenyl-1,2,3,4,4a,5-hexahydrodipyrido[1,2-b:2′,1′-f][1,2,4]triazine-6,8-dione]	397 nM
CN1C(=O)c2c(O)c(=O)ccn2N2C(c3cccc(F)c3)CCCC12 (single isomer, unassigned) [Compound 10B, 1-(3-fluorophenyl)-7-hydroxy-5-methyl-1,2,3,4,4a,5-hexahydrodipyrido[1,2-b:2′,1′-f][1,2,4]triazine-6,8-dione]	86.5 nM
CCC1(c2ccccc2)CCCC2N(C)C(=O)c3c(O)c(=O)ccn3N21 (single isomer, unassigned) [Compound 22C, 1-ethyl-7-hydroxy-5-methyl-1-phenyl-1,2,3,4,4a,5-hexahydrodipyrido[1,2-b:2′,1′-f][1,2,4]triazine-6,8-dione]	> 8100 nM
CN1C(=O)c2c(O)c(=O)ccn2N2C(c3ccccc3F)C(CC(F)(F)F)CCC12 (single isomer, unassigned) [Compound 127B, 1-(2-fluorophenyl)-7-hydroxy-5-methyl-2-(2,2,2-trifluoroethyl)-1,2,3,4,4a,5-hexahydrodipyrido[1,2-b:2′,1′-f][1,2,4]triazine-6,8-dione]	3 nM
CN1C(=O)c2c(O)c(=O)ccn2N2C1CCC1(CCC(F)(F)C1)C2c1ccccc1 (single isomer, unassigned) [Compound 68D, 3,3-difluoro-7′-hydroxy-5′-methyl-1′-phenyl-3′,4′,4a′,5′-tetrahydro-1′H-spiro[cyclopentane-1,2′-dipyrido[1,2-b:2′,1′-f][1,2,4]triazine]-6′,8′-dione]	11.8 nM
CN1C(=O)c2c(O)c(=O)ccn2N2C(c3ccccc3)C(CC(F)F)CCC12 (single isomer, unassigned) [Compound 129C, 2-(2,2-difluoroethyl)-7-hydroxy-5-methyl-1-phenyl-1,2,3,4,4a,5-hexahydrodipyrido[1,2-b:2′,1′-f][1,2,4]triazine-6,8-dione]	6.6 nM
CN1C(=O)c2c(O)c(=O)ccn2N2C(c3ccccc3Br)C(CC(F)(F)F)CCC12 (single isomer, unassigned) [Compound 89B, 1-(2-bromophenyl)-7-hydroxy-5-methyl-2-(2,2,2-trifluoroethyl)-1,2,3,4,4a,5-hexahydrodipyrido[1,2-b:2′,1′-f][1,2,4]triazine-6,8-dione]	2.4 nM
COc1c2n(ccc1=O)N1C(c3ccccc3)C(SC(C)C)CCC1N(C)C2=O (centres unmarked) [Compound 146B, 2-(isopropylthio)-7-methoxy-5-methyl-1-phenyl-1,2,3,4,4a,5-hexahydrodipyrido[1,2-b:2′,1′-f][1,2,4]triazine-6,8-dione]	237 nM
CN1C(=O)c2c(O)c(=O)ccn2N2C(c3ccccc3)C(c3cc(F)c(F)cc3F)CCC12 (single isomer, unassigned) [Compound 86C, 7-hydroxy-5-methyl-1-phenyl-2-(2,4,5-trifluorophenyl)-1,2,3,4,4a,5-hexahydrodipyrido[1,2-b:2′,1′-f][1,2,4]triazine-6,8-dione]	230 nM
CN1C(=O)c2c(O)c(=O)ccn2N2C1CCCC2(C)c1ncccc1F (single isomer, unassigned) [Compound 27B, 1-(3-fluoropyridin-2-yl)-7-hydroxy-1,5-dimethyl-1,2,3,4,4a,5-hexahydrodipyrido[1,2-b:2′,1′-f][1,2,4]triazine-6,8-dione]	17.1 nM
CCN1C(=O)c2c(O)c(=O)ccn2N2C(c3ccccc3)C(CC(F)(F)F)CCC12C (single isomer, unassigned) [Compound 82B, 5-ethyl-7-hydroxy-4a-methyl-1-phenyl-2-(2,2,2-trifluoroethyl)-1,2,3,4,4a,5-hexahydrodipyrido[1,2-b:2′,1′-f][1,2,4]triazine-6,8-dione]	2.3 nM
CCN1C(=O)c2c(O)c(=O)ccn2N2C(c3ccccc3)C(CC3(C(F)(F)F)CC3)CCC12 (single isomer, unassigned) [Compound 97A, 5-ethyl-7-hydroxy-1-phenyl-2-((1-(trifluoromethyl)cyclopropyl)methyl)-1,2,3,4,4a,5-hexahydrodipyrido[1,2-b:2′,1′-f][1,2,4]triazine-6,8-dione]	> 810 nM
CCN1C(=O)c2c(O)c(=O)ccn2N2C1CCCC2(C)c1cccc(C2CC2)n1 (single isomer, unassigned) [Compound 55B, 1-(6-cyclopropylpyridin-2-yl)-5-ethyl-7-hydroxy-1-methyl-1,2,3,4,4a,5-hexahydrodipyrido[1,2-b:2′,1′-f][1,2,4]triazine-6,8-dione]	18.5 nM
CN1C(=O)c2c(O)c(=O)ccn2N2C1CCCC2(C)c1ccccc1F (single isomer, unassigned) [Compound 24A, 1-(2-fluorophenyl)-7-hydroxy-1,5-dimethyl-1,2,3,4,4a,5-hexahydrodipyrido[1,2-b:2′,1′-f][1,2,4]triazine-6,8-dione]	2.1 nM
O=C1c2c(O)c(=O)ccn2N2C(c3ccccc3)C(CCC(F)(F)F)CCC2N1CC1CC1 (single isomer, unassigned) [Compound 100A, 5-(cyclopropylmethyl)-7-hydroxy-1-phenyl-2-(3,3,3-trifluoropropyl)-1,2,3,4,4a,5-hexahydrodipyrido[1,2-b:2′,1′-f][1,2,4]triazine-6,8-dione]	> 810 nM
CN1C(=O)c2c(O)c(=O)ccn2N2C(c3ccccc3)C(C3(C(F)(F)F)CC3)CCC12 (single isomer, unassigned) [Compound 108B, 7-hydroxy-5-methyl-1-phenyl-2-(1-(trifluoromethyl)cyclopropyl)-1,2,3,4,4a,5-hexahydrodipyrido[1,2-b:2′,1′-f][1,2,4]triazine-6,8-dione]	9.4 nM
CN1C(=O)c2c(O)c(=O)ccn2N2C1CCC1(CCC(F)(F)C1)C2c1ccccc1 (single isomer, unassigned) [Compound 68C, 3,3-difluoro-7′-hydroxy-5′-methyl-1′-phenyl-3′,4′,4a′,5′-tetrahydro-1′H-spiro[cyclopentane-1,2′-dipyrido[1,2-b:2′,1′-f][1,2,4]triazine]-6′,8′-dione]	11.4 nM
CN1C(=O)c2c(O)c(=O)ccn2N2C(c3c(F)cccc3F)C(CC(F)(F)F)CCC12 (single isomer, unassigned) [Compound 123D, 1-(2,6-difluorophenyl)-7-hydroxy-5-methyl-2-(2,2,2-trifluoroethyl)-1,2,3,4,4a,5-hexahydrodipyrido[1,2-b:2′,1′-f][1,2,4] triazine-6,8-dione]	26.9 nM
CN1C(=O)c2c(O)c(=O)ccn2N2C(c3ccccc3F)C(CC(F)F)CCC12 (single isomer, unassigned) [Compound 113A, 2-(2,2-difluoroethyl)-1-(2-fluorophenyl)-7-hydroxy-5-methyl-1,2,3,4,4a,5-hexahydrodipyrido[1,2-b:2′,1′-f][1,2,4]triazine-6,8-dione]	3440 nM
CN1C(=O)c2c(O)c(=O)ccn2N2C(c3cc(F)ccc3OC(F)F)CCCC12 (single isomer, unassigned) [Compound 17A, 1-(2-(difluoromethoxy)-5-fluorophenyl)-7-hydroxy-5-methyl-1,2,3,4,4a,5-hexahydrodipyrido[1,2-b:2′,1′-f][1,2,4]triazine-6,8-dione]	3510 nM
CN1C(=O)c2c(O)c(=O)ccn2N2C(c3ccccc3)C(CC(F)F)CCC12 (single isomer, unassigned) [Compound 129D, 2-(2,2-difluoroethyl)-7-hydroxy-5-methyl-1-phenyl-1,2,3,4,4a,5-hexahydrodipyrido[1,2-b:2′,1′-f][1,2,4]triazine-6,8-dione]	92 nM
CN1C(=O)c2c(O)c(=O)ccn2N2C1CCC2(C)c1ccccc1Cl (single isomer, unassigned) [Compound 63B, 1-(2-chlorophenyl)-6-hydroxy-1,4-dimethyl-2,3,3a,4-tetrahydro-1H-pyrido[2,1-f]pyrrolo[1,2-b][1,2,4]triazine-5,7-dione]	160 nM

Same assay, conditions: MDCK, 48 h

SMILES	EC50
CC(C)CC1CC(c2ccccc2)N2C(C1)N(C)C(=O)c1c(O)c(=O)ccn12 (centres unmarked) [Compound 130B, 7-hydroxy-3-isobutyl-5-methyl-1-phenyl-1,2,3,4,4a,5-hexahydrodipyrido[1,2-b:2′,1′-f][1,2,4]triazine-6,8-dione]	1410 nM
CN1C(=O)c2c(O)c(=O)ccn2N2[C@H](c3ccccc3)[C@H](OCC3CCCC3)CC[C@@H]12 [Compound 158, (1R,2R,4aS)-2-(cyclopentylmethoxy)-7-hydroxy-5-methyl-1-phenyl-1,2,3,4,4a,5-hexahydrodipyrido[1,2-b:2′,1′-f][1,2,4]triazine-6,8-dione]	102 nM
